Laboratory results published in the CheMixHub viscosity set.

Assay: xn = mol fraction of the nth substance listed

BrC(Br)Br + Brc1ccccc1
viscosity [mPa·s]
Settings | x1 = 0.1693 | x1 = 0.1837 | x1 = 0.3354 | x1 = 0.3369 | x1 = 0.5411 | x1 = 0.5417 | x1 = 0.6863 | x1 = 0.6869 | x1 = 0.8606 | x1 = 0.871
298 K, 101.3 kPa | – | 1.207 | – | 1.333 | – | 1.51 | – | 1.627 | 1.769 | –
318 K, 101.33 kPa | 0.9504 | – | 1.051 | – | 1.179 | – | 1.272 | – | – | 1.396

CCC(C)(C)OC + C1CCCC1
viscosity [mPa·s], 100 kPa
Settings | x1 = 0.0512 | x1 = 0.1014 | x1 = 0.2107 | x1 = 0.3001 | x1 = 0.4033 | x1 = 0.5001 | x1 = 0.6006 | x1 = 0.7352 | x1 = 0.8928 | x1 = 0.9498
293.15 K | 0.429 | 0.429 | 0.431 | 0.432 | 0.434 | 0.435 | 0.436 | 0.437 | 0.439 | 0.439
303.15 K | 0.386 | 0.388 | 0.392 | 0.395 | 0.398 | 0.401 | 0.404 | 0.408 | 0.413 | 0.414
313.15 K | 0.349 | 0.35 | 0.353 | 0.355 | 0.357 | 0.359 | 0.361 | 0.364 | 0.367 | 0.368

BrC(Br)Br + C1CCCCC1
viscosity [mPa·s]
Settings | x1 = 0.1747 | x1 = 0.1851 | x1 = 0.3427 | x1 = 0.3428 | x1 = 0.5476 | x1 = 0.5486 | x1 = 0.6899 | x1 = 0.6911 | x1 = 0.8718 | x1 = 0.8747
298 K, 101.3 kPa | – | 0.959 | – | 1.071 | – | 1.258 | 1.409 | – | 1.67 | –
318 K, 101.33 kPa | 0.7236 | – | 0.82 | – | 0.9769 | – | – | 1.113 | – | 1.309
